Source: patent publication US20160176924A1, “MODIFIED PEPTIDES AS POTENT INHIBITORS OF THE PSD-95/NMDA RECEPTOR INTERACTION” (priority 2008, published 2016)
Where “and” joins values, the source holds several entries; their conditions need not be identical. Identical values can stand only once.

What was measured:
PDZ1-2 of PSD-95 = biological target: T1, PDZ1-2 of PSD-95 (Homo sapiens, UniProt P78352); test: Isothermal titration calorimetry (ITC); assay type: binding; conditions: for Kd: 25° C., PBS pH 7.4, mean ± SEM, read-out: ITC Kd PDZ12
T1 construct: PDZ1-2 (residues 61-249) tandem; made in house; host or cells: E. coli BL21-DE3 pLysS
Description: This technique (Pierce, M. et al., 1999., Methods, p. 213-221) provides an exact determination of the affinity of a ligand for its target protein, as well as measuring the thermodynamic properties of the interaction, including enthalpy (ΔH), entropy (ΔS) and free energy (ΔG) together with the stoichiometric relationship of ligand binding. In this method, un-labeled ligand is titrated into a solution of un-labeled PDZ protein located in the calorimeter. Heat generated upon protein recognition is measured (ΔH) during the titration of the ligand and the PDZ protein until saturation is achieved, and the heat-exchange upon further ligand addition is negligible. Based on the amount of ligand needed to achieve saturation an affinity constant (Kd) is calculated and in addition ΔH, ΔS, ΔG and stoichiometry are determined.
Calorimetry experiments were performed on a microcalorimeter (Microcal, MA, USA). The ligands were titrated directly into the PDZ solution. All ligands and PDZ proteins were solubilized in PBS buffer (137 mM NaCl, 2.7 mM KCl, 10 mM Na2HPO4, 2 mM KH2PO4, pH 7.4) and when necessary pH was adjusted to 7.4 within 0.02 pH units after solubilization. The concentration of peptide and PDZ in solution was quantified by amino acid analysis. The calorimetry experiments were conducted at 25° C., where the PDZ1-2 concentration was generally adjusted to about 20 μM (200 μL in calorimeter) and the ligand concentration to between 200-2500 μM (injected to the protein as 20×2 μL). Experiments were designed so that c-value (c-value=Ka*[Protein]*n; where Ka is the affinity association constant, [Protein] means protein concentration, and n is the stoichiometry of the reaction) was within 1-1000. The analysed solution was stirred at 1000 rpm, with a reference power of 6 μcal/s. Heats of dilution were initially determined by titrating the ligand into buffer and subtracting these baseline values from the observed “heat values”. The data from each titration experiment were collected by ORIGIN 7.0 (Microcal, MA, USA), which was also used to determine the thermodynamic properties of ligand binding using non-linear least-squares fitting assuming a single-site model.

[1] = Human blood plasma stability assay; assay type: in vitro ADME; conditions: for half-life at […]: human, plasma, Blood plasma half life (T1/2)
Protocol: In this assay, the half-life (T1/2) of a compound in blood plasma is measured in vitro, whereby its susceptibility to degradation by proteases, peptidases and general plasma contents is quantified.
Compounds of interest were dissolved in human blood plasma (270 μl; 3H Biomedical, Sweden, cat no 1300-1-P50) to a concentration of 0.25 mM (30 μL of 2.5 mM) and incubated at 37° C. Aliquots (30 μl) were removed at various time intervals (0, 5, 10, 20, 40, 80, 160, 320, 960, 1280, 2550, 4560 and 7240 min) and quenched with 60 μL trichloroacetic acid (aq., 5%). The aliquots were vortexed, and incubated for at least 15 min, at 4° C. prior to centrifugation at 18,000 g for 2 min and the supernatant was analyzed by RP-HPLC to quantify the remaining compound (absorbance at 218 nm).

PDZ1-2 tandem of PSD-95 = biological target: T2, PDZ1-2 tandem of PSD-95 (Homo sapiens, UniProt P78352); test: FP heterologous competition binding assay; conditions: mean ± SEM
T2 construct: PDZ1-2 (residues 61-249) tandem; made in house; host or cells: E. coli BL21-DE3 pLysS
Description: (§1) Determined IC50 values may be converted to Ki values.^5 Suitable fluorophores include either 5-FAM or Cy5, which may be coupled to a tripeptide (KSG or CSG) linker attached to the N-terminus of the undecapeptide, to give 5-FAM-NR2B, Cy5-NR2B, 5-FAM-CRIPT and Cy5-CRIPT. The 5-FAM fluorophore may be attached to the undecapeptides by coupling with HATU. The Cy5 fluorophore may be conjugated to the undecapeptides by coupling Cy5-maleimide to the cysteine side chain of the tripeptide sequence CSG attached to the N-terminus of the peptide, as detailed in the Methodology section.
(§2) To measure the affinities between non-fluorescent peptides and PDZ domains, heterologous competition bindings assay were performed. This was done by adding increasing concentrations of peptide to a fixed concentration of Cy5-NR2B, 5-FAM-NR2B, Cy5-CRIPT or 5-FAM-CRIPT (50 nM) and PDZ (20 μM for PDZ1, 3 μM for PDZ2 and 1-2 and 5 μM for PDZ3) in the same TBS buffer and conditions as described above. FP values were then fitted to the general equation: Y=Bottom+(Top−Bottom)/[1[…](10̂^X-logIC50)], where X is the logarithmic value of peptide concentration. Hereby the IC50 value was obtained, which is used to calculate the theoretical competitive inhibition constant, Ki.^5
(§3) A convenient and reliable way to examine interactions between peptide analogues and PDZ domains is by using a fluorescence polarization (FP) assay. The three PDZ domains, PDZ1-3, of PSD-95 were expressed individually as set out above, while PDZ1-2 was also expressed as a tandem construct. […] IC50 values were then converted to Ki values.^5

PDZ2 of PSD-95 = biological target: T3, PDZ2 of PSD-95 (Homo sapiens, UniProt P78352); test: FP heterologous competition binding assay; conditions: for Ki: FP competition, mean ± SEM, NA = no activity/affinity
T3 construct: PDZ2 (residues 155-249); made in house; host or cells: E. coli BL21-DE3 pLysS
Description: as §1, §2, §3

PDZ1 of PSD-95 = biological target: T4, PDZ1 of PSD-95 (Homo sapiens, UniProt P78352); test: FP heterologous competition binding assay; conditions: for Ki: FP competition, mean ± SEM, NA = no activity/affinity
T4 construct: PSD-95 PDZ1 (residues 61-151); made in house; host or cells: E. coli BL21-DE3 pLysS
Description: as §1, §2, §3

[2] = test system: cultured cortical neurons; test: Neuronal NMDA excitotoxicity assay (LDH release); assay type: cell-based, rat; conditions: 500 nM
Description: When cultured cortical neurons are exposed to high concentrations of NMDA, an excitoxic cascade is initiated, which leads to cellular damage and ultimately neuronal cell death. Consequently, the cell membranes are destroyed, and cytoplasmic enzymes are released into the cell surroundings. The extent of this neuronal cell death can be quantified by measuring the release of cytoplasmic lactate dehydrogenase (LDH) enzyme into the cell medium. The compounds of interest and control compound (3) are investigated with respect to their abilities to attenuate NMDA-mediated toxicity. Compounds that are active in this assay are both membrane permeable, and can prevent ex vivo excitotoxicity, which are important properties for therapeutics towards excitotoxicity mediated diseases.
Cortical neurons were surgically removed from rats (e.g. E21) and then cultured for 7-9 days in vitro in Neurobasal A medium with B-27 supplement (each supplied by Invitrogen), further supplemented with 1 mM glutamine, 50 units/ml penicillin, and 50 μg/ml streptomycin. The following steps were then performed:
1. Samples of the cultured cortical neurons were removed from the Neurobasal-A based culture medium, at various time points prior to exposure to compound, and placed into “transfection medium” ([…]; as defined by Bading et al (1993) Science 260, 181-186) comprising: 10% modified Minimum Essential Medium (supplied by Invitrogen; product no: 21090022; containing Earles salt, but no L-glutamine), 90% Salt-Glucose-Glycine (SGG) medium: (114 mM NaCl, 0.219% NaHCO3, 5.292 mM KCL, 1 mM MgCl2, 2 mM CaCl2, 10 mM HEPES, 1 mM Glycine, 30 mM glucose, 0.5 mM sodium pyruvate, 0.1% Phenol Red), insulin-transferrin-selenite supplement (supplied by Sigma: 7.5 μg insulin/ml, 7.5 μg transferring/ml and 7.5 ng sodium selenite/ml); with a final osmolarity of 325 mosm/l. All subsequent steps were performed in this TM medium. 2. Samples of neurons are exposed to an NMDAR/PSD-95 inhibitor of the invention (compounds 40, 52-90) at a final concentration of between 0.05-50 μM for a period of between 0.5 to 1.5 hours. […] 3. Each sample of neurons was washed at least one time in TM medium to remove the NMDAR/PSD-95 inhibitor, and placed in TM medium. 4. After various periods of time, the samples of neurons were exposed to NMDA at a concentration of between 10-100 μM for a period of 0.5 to 1.5 hours, preferably 1 hour, after which the samples were again placed in TM medium for 24 hours. 5. LDH in the cell medium was quantified using commercial available kits (e.g. Promega Biotech AB, cat no G1780).

PSD-95's PDZ2 domain = biological target: T5, PSD-95's PDZ2 domain (Homo sapiens, UniProt P78352); test: Polyhistidine pull-down assay; assay type: binding; conditions: 200 μM
T5 construct: PDZ2 (residues 155-249); His-tag (thrombin-cleavable) (cleaved yes); made in house; host or cells: E. coli (as for the other PDZ constructs)
Description: The polyhistidine pull-down is an in vitro technique that consists of a polyhistidine-tagged bait NRB2 or CRIPT protein C-terminal domain (e.g NR2B WT peptide with the sequence [sequence]) that can be used to identify competitors of a PDZ domain-binding partner (PDZ domain of PSD-95) (the prey). The bait protein is immobilized on cobalt chelated affinity gel. The bait serves as the secondary affinity support for the protein partner to the bait and for identifying competitors that can displace the prey from the bait. The competitors are peptide analogues, specifically an NMDAR/PSD-95 inhibitor of the present invention. PPIs, between the prey and bait are analyzed by chemically dissociating/eluting the bound prey (PDZ domain or peptide analogue) and visualizing the prey by SDS-PAGE and associated detection methods depending on the sensitivity requirements of the interacting proteins. These methods include Coomassie® Dye, silver, and zinc staining; western blotting; and [^35S] radioisotopic detection. Alternatively, the displaced prey detected on the gel, can be isolated from a polyacrylamide gel, and further analyzed. […]
As bait, a polyhistidine NR2B WT peptide with the sequence [sequence] was synthesized. […] Eluted PDZ2 was analyzed by SDS-PAGE and silver staining.

PDZ3 of PSD-95 = biological target: T6, PDZ3 of PSD-95 (Homo sapiens, UniProt P78352); test: FP heterologous competition binding assay; conditions: FP competition; mean ± SEM; NA = no activity/affinity
T6 construct: PDZ3 (residues 309-401); made in house; host or cells: E. coli BL21-DE3 pLysS
Description: as §1, §2, §3

Row | Structure (SMILES) | Ki (PDZ1-2 tandem of PSD-95) [µM] | Ki (PDZ2 of PSD-95) [µM] | Ki (PDZ1 of PSD-95) | effect on NMDA-mediated excitotoxicity, in words [2] | Ki (PDZ3 of PSD-95) [µM] | also measured
1 | CC[C@H](C)[C@H](NC(=O)CCOCCOCCOCCOCCOCCC(=O)N[C@H](C(=O)N[C@@H](CCC(=O)O)C(=O)N[C@H](C(=O)N[C@@H](C)C(=O)N[C@H](C(=O)O)C(C)C)[C@@H](C)O)[C@@H](C)CC)C(=O)N[C@@H](CCC(=O)O)C(=O)N[C@H](C(=O)N[C@@H](C)C(=O)N[C@H](C(=O)O)C(C)C)[C@@H](C)O [(IETAV)2PEG4 (83), (IETAV)2PEG4] | ~0.1 | 1.1 ± 0.07 | – | – | – | fold greater affinity towards PDZ1-2 compared to Tat-NR2B (3) (WT or Tat-NR2B) (PDZ1-2 of PSD-95): about 1000 fold; Kd (PDZ1-2 of PSD-95): 0.011 ± 0.01 µM; fold increase in ligand affinity by dimerization compared to monomeric IETAV (82) (PDZ1-2 of PSD-95; PDZ1-2): 176 fold; half-life at […] [1]: 6.82 h
2 | CC(C)[C@H](NC(=O)[C@H](C)NC(=O)[C@@H](NC(=O)[C@H](C)NCCC1CCCCC1)[C@@H](C)O)C(=O)O [ATAV (73)] | – | – | 8.9 ± 1 µM | inhibit neuronal excitotoxicity, as efficiently as the clinical candidate Tat-N2B (3) | – | –
3 | CC[C@H](C)[C@H](NC(=O)CCOCCOCCOCCOCCOCCC(=O)N[C@H](C(=O)N[C@@H](CCC(=O)O)C(=O)N[C@@H](CO)C(=O)N[C@@H](CC(=O)O)C(=O)N[C@H](C(=O)O)C(C)C)[C@@H](C)CC)C(=O)N[C@@H](CCC(=O)O)C(=O)N[C@@H](CO)C(=O)N[C@@H](CC(=O)O)C(=O)N[C@H](C(=O)O)C(C)C [(IESDV)2PEG4 (78), (IESDV)2PEG4] | ~0.1 | – | – | – | – | Kd (PDZ1-2 of PSD-95): 0.032 ± 0.01 µM; degradation in human blood plasma, in words [1]: no significant degradation could be detected over a time period of 6 days; half-life at […] [1]: > 133 h
4 | CC(C)[C@H](NC(=O)[C@H](C)NC(=O)[C@@H](NC(=O)[C@H](CCC(=O)O)NCCc1ccc2ccccc2c1)C(C)O)C(=O)O (some centres unmarked) [Compound 63, N-(Naphtalene-2-yl)ethyl-ETAV] | – | – | 1 ± 0.33 µM | inhibit neuronal excitotoxicity, as efficiently as the clinical candidate Tat-N2B (3) | 10 ± 0.22 | –
5 | CC(C)[C@H](NC(=O)[C@H](C)NC(=O)[C@@H](NC(=O)[C@H](CCC(=O)O)NCCC1CCCCC1)C(C)O)C(=O)O (some centres unmarked) [Compound 56, N-Cyclohexylethyl-ETAV] | – | 0.45 ± 0.13 | 1 µM and 0.94 µM | inhibit neuronal excitotoxicity, as efficiently as the clinical candidate Tat-N2B (3) | 11 ± 0.43 | fold increase in affinity (more potent) compared to NR2B peptide (1), PDZ1 (PDZ1 of PSD-95): ca. 19 fold; selectivity towards PDZ1 relatively to PDZ3 (PDZ1 of PSD-95): 10 fold; fold increase in affinity compared to NR2B peptide (1), PDZ2 (PDZ2 of PSD-95): 9 fold; selectivity towards PDZ2 relatively to PDZ3 (PDZ2 of PSD-95): 20 fold

Second part, led by results:

Row | Ki (PDZ1-2 tandem of PSD-95) [µM] | Ki (PDZ2 of PSD-95) [µM] | Structure (SMILES) | Ki (PDZ1 of PSD-95) | effect on NMDA-mediated excitotoxicity, in words [2] | Ki (PDZ3 of PSD-95) [µM] | also measured
6 | – | 8.9 ± 0.5 | CN[C@@H](CCC(=O)O)C(=O)N[C@H](C(=O)N[C@@H](C)C(=O)N[C@H](C(=O)O)C(C)C)C(C)O (some centres unmarked) [Compound 40, N-Methyl-ETAV] | 11 ± 0.47 µM | – | 78 ± 1.5 | inhibition of PDZ2 binding to NR2B WT bait in pull-down, in words (PSD-95's PDZ2 domain): very effective inhibitor; fold increase in Ki (loss of affinity) compared to NR2B peptide (1), PDZ2 (PDZ2 of PSD-95): 2 fold
7 | 45 ± 4.1 | 25 ± 1.6 | CC(C)C[C@H](NC(=O)CNC(=O)[C@H](CO)NC(=O)[C@@H](N)CCCCN)C(=O)N[C@@H](CC(=O)O)C(=O)N[C@H](C(=O)N[C@@H](CCCCN)C(=O)N[C@@H](CC(N)=O)C(=O)N[C@@H](Cc1ccc(O)cc1)C(=O)N[C@@H](CCCCN)C(=O)N[C@@H](CCC(N)=O)C(=O)N[C@H](C(=O)N[C@@H](CO)C(=O)N[C@H](C(=O)O)C(C)C)[C@@H](C)O)[C@@H](C)O [CRIPT (2), reference compound] | 97 ± 18 µM | – | 2.1 ± 0.15 | –
